Read-outs that look alike come from different tables or passages of the source.
How the values were obtained:
Assay in all cases: microbe, parasite or virus in culture
Assay type in all cases: cell-based, Hepatitis C virus (HCV)
HCV replicon 1AQ30D = conditions: Replicon Assay B
HCV replicon 1B = conditions: Replicon Assay B
HCV replicon 1A = conditions: Replicon Assay A
Outline: (§1)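 Replicon cells were seeded at 2000 cells/well with test compound in 0.5% DMSO and 5% FBS, then harvested on day 3. Replicon RNA was measured by multiplex TaqMan real-time RT-PCR, using cyclophilin RNA as the endogenous control and quantified against standard curves of HCV replicon total RNA.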

HCV replicon 1AY93H = conditions: Replicon Assay A
Outline: as §1

HCV replicon 2B = conditions: Replicon Assay A
Outline: as §1

[1] = Hepatitis C virus, read-out: 1A Q30D IC50 (nM), replicon 1AQ30D
[2] = Hepatitis C virus, read-out: 1A Y93H IC50 (nM), replicon 1AY93H
[3] = Hepatitis C virus, read-out: 2B IC50 (nM), replicon 2B
[4] = Hepatitis C virus, read-out: 1A Q30D IC50, HCV replicon 1A Q30D
[5] = Hepatitis C virus, HCV replicon 1B
[6] = read-out: 1A Y93H IC50, HCV replicon 1A Y93H
[7] = read-out: 2B IC50, HCV replicon 2B
[8] = read-out: 1A Q30D IC50, HCV replicon 1A Q30D

SMILES	IC50 (HCV replicon 1AQ30D; [1]) [nM]	IC50 (HCV replicon 1B; Hepatitis C virus, replicon 1B) [nM]	IC50 (HCV replicon 1A; Hepatitis C virus, replicon 1A) [nM]	IC50 (HCV replicon 1AY93H; [2]) [nM]	IC50 (HCV replicon 2B; [3]) [nM]	IC50 (HCV replicon 1B; [5]) [nM]	IC50 (HCV replicon 1A; HCV replicon 1A) [nM]	IC50 (HCV replicon 1AY93H; [6]) [nM]	IC50 (HCV replicon 2B; [7]) [nM]	further results
COC(=O)NC(C(=O)N1CCC[C@H]1c1ncc(-c2cc(F)c3c(c2)OC(c2ccc(C4CC4)s2)n2c-3cc3cc(-c4cnc([C@@H]5CCCN5C(=O)[C@@H](NC(=O)OC)C(C)C)[nH]4)ccc32)[nH]1)C1C[C@@H](C)O[C@@H](C)C1 (stereo partly shown) [Compound 188]	0.02	0.0012	0.0017	0.002	0.005					
COC(=O)N[C@H](C(=O)N1CCC[C@H]1c1ncc(-c2ccc3c(c2)OC(c2cc4ccccc4s2)n2c-3cc3cc(-c4cnc([C@@H]5C[C@@H](F)CN5C(=O)[C@@H](NC(=O)OC)C5CCOCC5)[nH]4)ccc32)[nH]1)C1CCOCC1 (single isomer, unassigned) [Compound 813]						0.087	0.043	0.038	0.018	IC50 (HCV replicon 1AQ30D; [4]): 1.4 nM
COC(=O)N[C@H](C(=O)N1CCC[C@H]1c1ncc(-c2cc(F)c3c(c2)OC(c2cc4c(s2)CCC4)n2c-3cc3cc(-c4cnc([C@@H]5CCCN5C(=O)[C@@H](NC(=O)OC)C5CCOCC5)[nH]4)ccc32)[nH]1)C(C)C (single isomer, unassigned) [Compound 620]						0.0019		0.0059	0.0102	IC50 (HCV replicon 1AQ30D; [4]): 0.114 nM; IC50 (HCV replicon 1A; Hepatitis C virus, HCV replicon 1A): 0.0023 nM
COC(=O)N[C@H](C(=O)N1CCC[C@H]1c1ncc(-c2cc(F)c3c(c2)OC(c2ccc(-c4ccc(I)cc4)s2)n2c-3cc3cc(-c4cnc([C@@H]5CCCN5C(=O)[C@@H](NC(=O)OC)C(C)C)[nH]4)ccc32)[nH]1)C(C)C (mixture of isomers) [Compound 313]	0.19	0.0029	0.0032	0.026	0.1					
CCc1ccc(C2Oc3cc(-c4cnc([C@@H]5CCCN5C(=O)[C@@H](NC(=O)OC)C(C)C)[nH]4)ccc3-c3c(F)c4cc(-c5cnc([C@@H]6CCCN6C(=O)C(NC(=O)OC)C6C[C@@H](C)O[C@@H](C)C6)[nH]5)ccc4n32)s1 (single isomer, unassigned) [Compound 634]						0.0015	0.0023	0.0149	0.027	IC50 (HCV replicon 1AQ30D; [8]): 0.237 nM
COC(=O)NC(C(=O)N1[C@@H]2C[C@@H]2C[C@H]1c1ncc(-c2ccc3c(c2)cc2n3C(c3ccc(C4CC4)s3)Oc3cc(-c4cnc([C@@H]5CCCN5C(=O)[C@@H](NC(=O)OC)C(C)C)[nH]4)cc(F)c3-2)[nH]1)C(C)(C)F (stereo partly shown) [Compound 93]	0.053	0.0025	0.003	0.007	0.054					
CCc1ccc(C2Oc3cc(-c4cnc([C@@H]5CCCN5C(=O)C(NC(=O)OC)C5CCOC(C)(C)C5)[nH]4)cc(F)c3-c3cc4cc(-c5cnc([C@@H]6CCCN6C(=O)[C@@H](NC(=O)OC)C(C)C)[nH]5)ccc4n32)s1 (single isomer, unassigned) [Compound 163]										IC50 (HCV replicon 1AQ30D; read-out: 1A Q30D IC50, replicon 1AQ30D): 0.17 nM; IC50 (HCV replicon 1B; replicon 1B): 0.0313 nM; IC50 (HCV replicon 1A; replicon 1A): 0.0184 nM; IC50 (HCV replicon 1AY93H; read-out: 1A Y93H IC50, replicon 1AY93H): 0.058 nM; IC50 (HCV replicon 2B; read-out: 2B IC50, replicon 2B): 0.063 nM
COC(=O)NC(C(=O)N1[C@@H]2C[C@@H]2C[C@H]1c1ncc(-c2ccc3c(c2)cc2n3C(c3ccc(CC4CC4)s3)Oc3cc(-c4cnc([C@@H]5CCCN5C(=O)[C@@H](NC(=O)OC)C(C)C)[nH]4)cc(F)c3-2)[nH]1)C1CCOC(C)(C)C1 (single isomer, unassigned) [Compound 418]							0.0027	0.093	0.16	IC50 (HCV replicon 1AQ30D; [8]): 0.862 nM; IC50 (HCV replicon 1B; HCV replicon 1B): 0.0027 nM

Source: patent publication US20160257697A1, “THIOPHENE-SUBSTITUTED TETRACYCLIC COMPOUNDS AND METHODS OFUSE THEREOF FOR THE TREATMENT OF VIRAL DISEASES” (priority 2013, published 2016)
